Measurements: patent US9770461B2, “Tailored glycopolymers as anticoagulant heparin mimetics” (California Institute of Technology, priority 2013, dated 2017)

Columns and labels:
Format in all cases: biochemical
citrated human plasma [1] = assay: Prothrombin time (PT) analysis; conditions: 300 μL of 150 μg/mL sample in 2.7 mL citrated human plasma
Protocol: Samples were prepared by mixing 300 μL of the heparin standard or glycopolymer (150 μg/mL) in 0.9% saline with 2.7 mL citrated human plasma. The tube was inverted 3 times to mix the sample thoroughly. Samples were analyzed by the UCLA Clinical & Translational Research Laboratory using a Sysmex® CA-1500 Coagulation Analyzer (Siemens AG, Erlangen, Germany). Clotting time in the absence of an anticoagulant was determined using 0.9% saline solution water (300 μL). Each clotting assay was performed in triplicate.

Factor Xa (FXa) = assay: Chromogenic anti-FXa assay in the presence of antithrombin III; conditions: with ATIII
Protocol: The BIOPHEN Heparin Anti-Xa (2 stages) USP/EP kit (Aniara) was used to determine factor Xa activity. This chromogenic anti-Xa method for measuring homogeneous heparin in purified systems is in compliance with Pharmacopoeias (USP, EP) and FDA guidelines. All reagents were prepared according to manufacturer's instructions and incubated at 37° C. for 15 min. Varying concentrations of heparin (Neoparin) or glycopolymers 1-4 (40 μL) and antithrombin (40 μL) were added to a microcentrifuge tube, mixed, and incubated at 37° C. for 2 min. Factor Xa (40 μL) was added to the solution, incubated at 37° C. for exactly 2 min, and then the factor Xa chromogenic substrate (40 μL) was added. After 2 min, the reaction was quenched with citric acid (20 g/L, 240 μL), and the absorbance was measured at 405 nm. The sample blank was obtained by mixing the reagents in reverse order, and the resulting value was deducted from the absorbance values measured in the assay.
All reagents were prepared according to the manufacturer's instructions and incubated at 37° C. for 15 min. […] Absorbance at 405 nm was measured on a Uvikon XL spectrophotometer. […] The sample blank value was deducted from the absorbance measured for the corresponding assay.

citrated human plasma [2] = assay: Activated partial thromboplastin time (APTT) analysis
Protocol: Plasma/anticoagulant samples were prepared by mixing 300 μL of the heparin standard or glycopolymer (150 μg/mL) in 0.9% saline and 2.7 mL of citrated human plasma. The tube was inverted 3 times to mix the sample thoroughly. Samples were analyzed by the UCLA Clinical & Translational Research Laboratory using a Sysmex® CA-1500 Coagulation Analyzer (Siemens AG, Erlangen, Germany). Clotting time in the absence of an anticoagulant was determined using 0.9% saline solution water (300 μL). Each clotting assay was performed in triplicate.

IC50 (Factor Xa (FXa)): 11 ± 0.1 nM
SMILES: CO[C@H]1O[C@H](COS(=O)(=O)O)[C@@H](O[C@@H]2O[C@@H](C(=O)O)[C@@H](O[C@H]3O[C@H](COS(=O)(=O)O)[C@@H](O[C@@H]4O[C@H](C(=O)O)[C@@H](O[C@H]5O[C@H](COS(=O)(=O)O)[C@@H](O)[C@H](O)[C@H]5NS(=O)(=O)O)[C@H](O)[C@H]4O)[C@H](OS(=O)(=O)O)[C@H]3NS(=O)(=O)O)[C@H](O)[C@H]2OS(=O)(=O)O)[C@H](O)[C@H]1NS(=O)(=O)O [Arixtra]
PT (citrated human plasma [1]): 15.1 ± 0.3 s
APTT (citrated human plasma [2]; 300 μL of 150 μg/mL sample in 2.7 mL citrated human plasma): 78.3 ± 0.4 s
effect on APTT (in words) (citrated human plasma [2]; compared to saline control): increased only the APTT
